Test results as given in patent US7759366B2 (Sanofi-Aventis, priority 2006, dated 2010).

These compounds were tested against hCB1R (Homo sapiens, UniProt P21554) (assay: Binding to the CB1 receptor ([3H]-SR141716A displacement)). Details: not given.
Protocol: Binding to the CB1 Receptor:
Test compounds: The compounds (3 μl, 10 mM, 100% DMSO), pipetted into 96-well PP microtiter plates, were diluted with 27 μl of 100% DMSO (dimethyl sulfoxide). Proceeding from this solution, further 3-fold dilution steps were undertaken by transferring 10 μl in each case to a new PP microtiter plate and adding a further 20 μl of 100% DMSO. In each case 6 μl of these solutions were transferred into new 96-well PP microtiter plates and made up with 144 μl of assay buffer. The end concentrations ranged from 10 μM to 0.005 μM. Negative control: AM 251, dissolved in assay buffer with 1% DMSO, was added to the dilution series in the microtiter plates as a control. The end concentration was 1 μM. Blank control: assay buffer with 1% DMSO was added to the dilution series of the microtiter plates as a blank control.
Summary of the Assay Parameters:
High control: ^3H binding without addition of the compound
Low control: ^3H binding in the presence of 1 μM AM 251
The values were calculated using the corrected raw data.
The values reported were obtained as average values of a double determination. The IC50 values were calculated from the measurements with the program Xlfit, formula 205. Ki values were obtained from the IC50 and Kd values utilizing the Cheng-Prusoff equation: […]
Literature: Cheng, Y.-C., and Prusoff, W. H. (1973) Biochem. Pharmacol 22, 3099-3108

Sequence of hCB1R (P21554 whole entry): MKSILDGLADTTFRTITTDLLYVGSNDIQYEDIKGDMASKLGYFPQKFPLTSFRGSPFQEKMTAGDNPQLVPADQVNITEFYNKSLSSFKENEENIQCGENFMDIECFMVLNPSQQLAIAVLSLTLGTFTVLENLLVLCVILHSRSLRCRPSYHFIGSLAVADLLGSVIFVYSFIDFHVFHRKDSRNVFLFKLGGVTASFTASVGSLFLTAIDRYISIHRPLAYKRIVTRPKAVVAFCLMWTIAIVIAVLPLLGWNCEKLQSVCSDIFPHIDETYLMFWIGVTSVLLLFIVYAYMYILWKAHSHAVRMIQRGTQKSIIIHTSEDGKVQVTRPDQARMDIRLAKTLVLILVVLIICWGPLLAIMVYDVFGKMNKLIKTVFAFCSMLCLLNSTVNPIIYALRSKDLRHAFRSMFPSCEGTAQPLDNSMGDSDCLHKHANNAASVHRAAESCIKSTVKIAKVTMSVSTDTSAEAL

SMILES | Ki
CC1(C)C(=O)N(c2ccc(C#N)c(C(F)(F)F)c2)C(=O)N1Cc1ccccc1Nc1ccncc1 [Example 61, 4-{4,4-Dimethyl-2,5-dioxo-3-[2-(pyridin-4-ylamino)benzyl]imidazolidin-1-yl}-2-trifluoromethylbenzonitrile] | 19 nM
N#Cc1ccc(N2C(=O)N(Cc3ccccc3Nc3ccccc3)C3(CCCCC3)C2=O)cc1C(F)(F)F [Example 28, 4-[2,4-Dioxo-1-(2-phenylaminobenzyl)-1,3-diazaspiro[4.5]dec-3-yl]-2-trifluoromethylbenzonitrile] | 87 nM
CC1(C)C(=O)N(c2ccc(C#N)c(C(F)(F)F)c2)C(=O)N1Cc1ccccc1Nc1ccc(OC(F)(F)F)cc1 [Example 12, 4-{3-[2-(4-trifluoromethoxy-phenylamino)benzyl]-4,4-dimethyl-2,5-dioxoimidazolidin-1-yl}-2-trifluoromethylbenzonitrile] | 0.9 nM
CC1(C)C(=O)N(c2ccc(C#N)c(C(F)(F)F)c2)C(=O)N1Cc1ccc(C#N)cc1Nc1ccc(C(=O)O)cc1 [Example 132, 4-{5-cyano-2-[3-(4-cyano-3-trifluoromethylphenyl)-5,5-dimethyl-2,4-dioxoimidazolidin-1-ylmethyl]phenylamino}benzoic acid] | 6 nM
CC(C)(C)OC(=O)c1ccc(Nc2cc(C#N)ccc2CN2C(=O)N(c3ccc(C#N)c(C(F)(F)F)c3)C(=O)C2(C)C)cc1 [Example 126, tert-Butyl 4-{5-cyano-2-[3-(4-cyano-3-trifluoromethylphenyl)-5,5-dimethyl-2,4-dioxoimidazolidin-1-ylmethyl]phenylamino}benzoate] | 23 nM
COC(=O)c1ccc(Nc2cc(F)ccc2CN2C(=O)N(c3ccc(C#N)c(C(C)(C)C)c3)C(=O)C2(C)C)cc1 [Example 157, methyl 4-{2-[3-(3-tert-butyl-4-cyanophenyl)-5,5-dimethyl-2,4-dioxoimidazolidin-1-ylmethyl]-5-fluorophenylamino}benzoate] | 5 nM
CC1(C)C(=O)N(c2ccc(C#N)c(C(F)(F)F)c2)C(=O)N1Cc1cc(F)ccc1Nc1ccc(Cl)cc1 [Example 16, 4-{3-[2-(4-chlorophenylamino)-5-fluorobenzyl]-4,4-dimethyl-2,5-dioxoimidazolidin-1-yl}-2-trifluoromethylbenzonitrile] | 2 nM
COc1ccc(Nc2ccc(C#N)c(C(F)(F)F)c2)c(CN2C(=O)N(c3ccc(C#N)c(C(F)(F)F)c3)C(=O)C2(C)C)c1 [Example 10, 4-{3-[2-(4-cyano-3-trifluoromethylphenylamino)-5-methoxybenzyl]-4,4-dimethyl-2,5-dioxoimidazolidin-1-yl}-2-trifluoromethylbenzonitrile] | 24 nM
COc1ccc(Nc2ccccc2)c(CN2C(=O)N(c3ccc(C#N)c(C(F)(F)F)c3)C(=O)C2(C)C)c1 [Example 6, 4-[3-(5-Methoxy-2-phenylaminobenzyl)-4,4-dimethyl-2,5-dioxoimidazolidin-1-yl]-2-trifluoromethylbenzonitrile] | 21 nM
CC1(C)C(=O)N(c2ccc(F)c(C(F)(F)F)c2)C(=O)N1Cc1ccccc1Nc1ccccc1 [Example 23, 3-(4-Fluoro-3-trifluoromethylphenyl)-5,5-dimethyl-1-(2-phenylaminobenzyl)imidazolidin-2,4-dione] | 10 nM
CC1(C)C(=O)N(c2ccc(C#N)c(C(F)(F)F)c2)C(=O)N1Cc1ccccc1Nc1ccc(C(=O)O)cc1 [Example 62] | 16 nM
CC1(C)C(=O)N(c2ccc(C#N)c(C(F)(F)F)c2)C(=O)N1Cc1ccccc1Nc1ccc(S(C)(=O)=O)cc1 [Example 27, 4-{3-[2-(4-methylsulfonylphenylamino)benzyl]-4,4-dimethyl-2,5-dioxoimidazolidin-1-yl}-2-trifluoromethylbenzonitrile] | 17 nM
COc1ccc(Nc2ccccc2CN2C(=O)N(c3ccc(C#N)c(C(F)(F)F)c3)C(=O)C2(C)C)nn1 [Example 179, 4-{3-[2-(6-methoxypyridazin-3-ylamino)benzyl]-4,4-dimethyl-2,5-dioxoimidazolidin-1-yl}-2-trifluoromethylbenzonitrile] | 16 nM
CC1(C)C(=O)N(c2ccc(C#N)c(C(F)(F)F)c2)C(=O)N1Cc1ccccc1Nc1ccc(C=O)cc1 [Example 120, 4-{3-[2-(4-formylphenylamino)benzyl]-4,4-dimethyl-2,5-dioxoimidazolidin-1-yl}-2-trifluoromethylbenzonitrile] | 5 nM
CC1(C)C(=O)N(c2ccc(C#N)c(S(F)(F)(F)(F)F)c2)C(=O)N1Cc1ccccc1Nc1ccc(F)cc1F [Example 51, 4-{3-[2-(2,4-Difluorophenylamino)benzyl]-4,4-dimethyl-2,5-dioxoimidazolidin-1-yl}-2-pentafluorosulfanylbenzonitrile] | 2 nM
CC1(C)C(=O)N(c2ccc(C#N)c(C(F)(F)F)c2)C(=O)N1Cc1ccccc1Nc1ccc(F)cc1C#N [Example 53, 4-{3-[2-(2-cyano-4-fluorophenylamino)benzyl]-4,4-dimethyl-2,5-dioxoimidazolidin-1-yl}-2-trifluoromethylbenzonitrile] | 2 nM
CC1(C)C(=O)N(c2ccc(C#N)c(C(F)(F)F)c2)C(=O)N1Cc1cc(C(F)(F)F)ccc1Nc1ccc(F)cc1 [Example 17, 4-{3-[2-(4-Fluorophenylamino)-5-trifluoromethylbenzyl]-4,4-dimethyl-2,5-dioxoimidazolidin-1-yl}-2-trifluoromethylbenzonitrile] | 3 nM
CC(C)(C)c1cc(N2C(=O)N(Cc3ccccc3Nc3ccccc3)C(C)(C)C2=O)ccc1C#N [Example 63, 2-tert-Butyl-4-[4,4-dimethyl-2,5-dioxo-3-(2-phenylaminobenzyl)imidazolidin-1-yl]benzonitrile] | 9 nM
COc1ccc(Nc2ccc(Cl)cc2)c(CN2C(=O)N(c3ccc(C#N)c(C(F)(F)F)c3)C(=O)C2(C)C)c1 [Example 9, 4-{3-[2-(4-chlorophenylamino)-5-methoxybenzyl]-4,4-dimethyl-2,5-dioxoimidazolidin-1-yl}-2-trifluoromethylbenzonitrile] | 13 nM
COC(=O)c1cc(Nc2ccccc2CN2C(=O)N(c3ccc(C#N)c(C(F)(F)F)c3)C(=O)C2(C)C)ccc1OC [Example 129, methyl 5-{2-[3-(4-cyano-3-trifluoromethylphenyl)-5,5-dimethyl-2,4-dioxoimidazolidin-1-ylmethyl]phenylamino}-2-methoxybenzoate] | 10 nM
CC1(C)C(=O)N(c2ccc(F)c(C(F)(F)F)c2)C(=O)N1Cc1ccccc1Nc1ccc(F)cc1F [Example 52, 1-[2-(2,4-difluorophenylamino)benzyl]-3-(4-fluoro-3-trifluoromethylphenyl)-5,5-dimethylimidazolidine-2,4-dione] | 3 nM

Same assay, conditions: CHO-K1/cannabinoid CB1 protein 2 μg/well; [3H]-SR141716A 0.5 nM; Ki from IC50 by Cheng-Prusoff; average of double determination; read-out: hCB1R; binding Ki

SMILES | Ki
COC(=O)c1ccc(Nc2cc(F)ccc2CN2C(=O)N(c3ccc(C#N)c(-c4ccc(Cl)cc4)c3)C(=O)C2(C)C)cc1 [Example 224, methyl 4-{2-[3-(4′-chloro-6-cyanobiphenyl-3-yl)-5,5-dimethyl-2,4-dioxoimidazolidin-1-ylmethyl]-5-fluorophenylamino}benzoate] | 6 nM
CC1(C)C(=O)N(c2ccc(C#N)c(C(F)(F)F)c2)C(=O)N1Cc1ccccc1Nc1ccc(N(S(C)(=O)=O)S(C)(=O)=O)cc1 [Example 176] | 130 nM
CC1(C)C(=O)N(c2ccc(C#N)c(C(F)(F)F)c2)C(=O)N1Cc1cccc(Nc2ccccc2)c1 [Example 29, 4-[4,4-Dimethyl-2,5-dioxo-3-(3-phenylaminobenzyl)imidazolidin-1-yl]-2-trifluoromethylbenzonitrile] | 107 nM
CC1(C)C(=O)N(c2ccc(F)c(C(F)(F)F)c2)C(=O)N1Cc1ccc(F)cc1Nc1ccc(C(=O)N2CCNCC2)cc1 [Example 172, 1-{4-Fluoro-2-[4-(piperazine-1-carbonyl)phenylamino]benzyl}-3-(4-fluoro-3-trifluoromethylphenyl)-5,5-dimethylimidazolidine-2,4-dione] | 8 nM
CC1(C)C(=O)N(c2ccc(C#N)nc2)C(=O)N1Cc1ccccc1Nc1ccccc1 [Example 69] | 113 nM
CC1(C)C(=O)N(c2ccc(C#N)c(C(F)(F)F)c2)C(=O)N1Cc1ccccc1Nc1ccc(C(=O)NN2CCCCC2)cc1 [Example 174, 4-{2-[3-(4-Cyano-3-trifluoromethylphenyl)-5,5-dimethyl-2,4-dioxoimidazolidin-1-ylmethyl]phenylamino}-N-piperidin-1-ylbenzamide] | 144 nM
CCNS(=O)(=O)c1ccc(Nc2ccccc2CN2C(=O)N(c3ccc(C#N)c(C(F)(F)F)c3)C(=O)C2(C)C)cc1 [Example 151, 4-{2-[3-(4-cyano-3-trifluoromethylphenyl)-5,5-dimethyl-2,4-dioxoimidazolidin-1-ylmethyl]phenylamino}-N-ethylbenzenesulfonamide] | 155 nM
COC(=O)c1ccc(Nc2cc(F)ccc2CN2C(=O)N(c3ccnc(C(C)(C)C)c3)C(=O)C2(C)C)cc1 [Example 167, Methyl 4-{2-[3-(2-tert-butylpyridin-4-yl)-5,5-dimethyl-2,4-dioxoimidazolidin-1-ylmethyl]-5-fluorophenylamino}benzoate] | 7 nM
